The record followed here is BindingDB's records for doi:10.1016/j.bmc.2006.12.019 (Berlex, 2007).

Common to all, as to assay: Enzyme Inhibition Assay
Experiment [1] concerns the target T1, Serine protease 1 (Bos taurus, UniProt P00760).
T1 sequence (P00760 whole entry): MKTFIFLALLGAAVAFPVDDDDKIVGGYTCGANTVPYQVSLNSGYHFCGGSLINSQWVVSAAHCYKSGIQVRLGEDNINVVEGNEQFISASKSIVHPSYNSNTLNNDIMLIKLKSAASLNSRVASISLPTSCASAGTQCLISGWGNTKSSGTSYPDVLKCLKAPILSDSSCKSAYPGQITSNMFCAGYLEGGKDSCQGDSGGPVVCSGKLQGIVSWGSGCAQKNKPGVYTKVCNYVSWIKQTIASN
The protocol:
(§1) The enzyme activities were determined kinetically as the initial rate of cleavage of a peptide p-nitroanilide. Km for enzyme and substrate was determined using four substrate dilutions. Enzyme was incubated with test compounds for 10 min; the reaction was then started by the addition of the substrate. […] IC50 values for inhibitors were determined from the dose response curve by fitting the data to the Hill equation. Ki,app values were calculated as the IC50/2, with the IC50 value determined at a substrate concentration equal to Km

Experiment [2] addresses Prothrombin (Homo sapiens, UniProt P00734). On the procedure: as §1
Experiment [3] concerns the target Coagulation factor X (Homo sapiens, UniProt P00742). On the procedure: as §1

pKi: −log10 of the molar value.

Sequence of Coagulation factor X (P00742 41-179 limits assumed): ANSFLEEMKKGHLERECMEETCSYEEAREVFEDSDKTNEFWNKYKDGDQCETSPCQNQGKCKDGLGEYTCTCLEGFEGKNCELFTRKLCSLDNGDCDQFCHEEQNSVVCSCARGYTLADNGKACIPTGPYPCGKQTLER
Sequence of Coagulation factor X (P00742 235-488 limits assumed): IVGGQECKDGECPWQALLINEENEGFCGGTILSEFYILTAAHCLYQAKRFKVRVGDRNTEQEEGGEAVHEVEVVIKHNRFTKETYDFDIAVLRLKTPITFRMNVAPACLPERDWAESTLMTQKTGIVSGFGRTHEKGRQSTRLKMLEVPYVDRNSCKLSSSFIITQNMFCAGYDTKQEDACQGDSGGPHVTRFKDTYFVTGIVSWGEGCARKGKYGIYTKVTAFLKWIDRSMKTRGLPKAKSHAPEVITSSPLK

Regarding `Cc1ccc(NC(=O)c2sc3ccccc3c2Cl)c(C(=O)Nc2ccc(Cl)cc2)c1` [3-chloro-N-{2-[(4-chlorophenyl)carbamoyl]-4-methylphenyl}-1-benzothiophene-2-carboxamide], the pKi in experiment [1] and in experiment [2] was < 5.30 in each case. With `CC1(C)OCC(COCc2csc(C(=O)Nc3ccc(Cl)cc3C(=O)Nc3ccc(Cl)cc3)c2Cl)O1` (stereo not given) [3-chloro-N-{4-chloro-2-[(4-chlorophenyl)carbamoyl]phenyl}-4-{[(2,2-dimethyl-1,3-dioxolan-4-yl)methoxy]methyl}thiophene-2-carboxamide], the pKi in experiment [1] is < 5.30.

As to `CSCc1csc(C(=O)Nc2ccc(Cl)cc2C(=O)Nc2ccc(Cl)cc2)c1Cl` [3-chloro-N-{4-chloro-2-[(4-chlorophenyl)carbamoyl]phenyl}-4-[(methylsulfanyl)methyl]thiophene-2-carboxamide], in experiment [1], the pKi is < 5.30. On the same count and under the same terms, then `CN(C)Cc1ccc2c(Cl)c(C(=O)Nc3ccc(Cl)cc3C(=O)Nc3ccc(Cl)cc3)sc2c1` [3-chloro-N-{4-chloro-2-[(4-chlorophenyl)carbamoyl]phenyl}-6-[(dimethylamino)methyl]-1-benzothiophene-2-carboxamide], with < 5.30.

As to `CN(C)CCN(C)Cc1csc(C(=O)Nc2ccc(Cl)cc2C(=O)Nc2ccc(Cl)cc2)c1Cl` [3-chloro-N-{4-chloro-2-[(4-chlorophenyl)carbamoyl]phenyl}-4-({[2-(dimethylamino)ethyl](methyl)amino}methyl)thiophene-2-carboxamide], in experiment [1], the pKi is < 5.30. Still for that read-out and setting: then `O=C(Nc1ccc(Cl)cc1)c1cc(Cl)ccc1NC(=O)c1scc(Cn2nccn2)c1Cl` [3-chloro-N-{4-chloro-2-[(4-chlorophenyl)carbamoyl]phenyl}-4-(2H-1,2,3-triazol-2-ylmethyl)thiophene-2-carboxamide], with < 5.30.

As for `CCCN1Cc2sc(C(=O)Nc3ccc(Cl)cc3C(=O)Nc3ccc(Cl)cc3)c(Cl)c2C1` [3-chloro-N-{4-chloro-2-[(4-chlorophenyl)carbamoyl]phenyl}-5-propyl-4H,5H,6H-thieno[2,3-c]pyrrole-2-carboxamide], the pKi was 5.49 in experiment [2] and 8.66 in experiment [3]. Regarding `O=C(Nc1ccc(Cl)cc1)c1cc(Cl)ccc1NC(=O)c1scc(Cn2cncn2)c1Cl` [3-chloro-N-{4-chloro-2-[(4-chlorophenyl)carbamoyl]phenyl}-4-(1H-1,2,4-triazol-1-ylmethyl)thiophene-2-carboxamide], the pKi in experiment [1] is < 5.30.
